Results from patent publication US6316500A, “Aliphatically unsaturated hydroxy benzoates and preservative compositions thereof” (ISP Investments Inc., priority 1999, dated 2001).

What was measured:
B. cepacia 25416 = experiment: Activity test: preservative challenge test in emulsion, B. cepacia 25416; format: cell-based; details: for number of colonies per milliliter, 28 days: reinoculated at 21 days
Description: (§1) The emulsion was prepared by separately mixing components in phase A and phase B at 75-80° C. for 15 minutes. The phases were then combined and mixed for another 10 minutes and cooled to 45° C. with stirring. Preservative was then added followed by citric acid to adjust pH to from abut 6.5 to 7.5. Stirring of the resulting mixture was continued until a temperature of 30° C. was reached. The activity tests were carried out using the following microorganisms: A. niger, B. cepacia, C. albicans, E. coli, P. aeruginosa and S. aureus. 50 g aliquots of the test emulsion containing various amounts of the preservative admixture as reported in Tables I-V were inoculated with approximately 10^7 -10^8 of the test organisms. The test samples then were stirred to disperse the challenge inoculum. The samples were incubated and assayed at 48 hours, 7, 14, 21 and 28 days. The assays were performed on 1 g, of the test sample by serially diluting 10^3 to 10^6 of the original concentration. The plating medium for bacteria was Letheen agar and for fungi it was low pH Mycophil agar with Tween 20. Each plated sample was incubated for 48 hours at 37° C. for bacteria, 5 days at 25° C. for mold and 3 days at 25° C. for fungi. After incubation, readings of the number of colonies per milliliter (cfu/ml) were made results were determined, as reported in associated Tables IA-VA. At 21 days the test product was reinoculated with half of the original inoculum.

C. albicans 10231 = experiment: Activity test: preservative challenge test in emulsion, C. albicans 10231; format: cell-based; details: for number of colonies per milliliter, 28 days: reinoculated at 21 days
Description: as §1

A. niger 16404 = experiment: Activity test: preservative challenge test in emulsion, A. niger 16404; format: cell-based; details: for number of colonies per milliliter, 28 days: reinoculated at 21 days
Description: as §1

P. aeruginosa 9027 = experiment: Activity test: preservative challenge test in emulsion, P. aeruginosa 9027; format: cell-based; details: for number of colonies per milliliter, 28 days: reinoculated at 21 days
Description: as §1

S. aureus 6538 = experiment: Activity test: preservative challenge test in emulsion, S. aureus 6538; format: cell-based; details: for number of colonies per milliliter, 28 days: reinoculated at 21 days
Description: as §1

E. coli 8739 = experiment: Activity test: preservative challenge test in emulsion, E. coli 8739; format: cell-based; details: for number of colonies per milliliter, 28 days: reinoculated at 21 days
Description: as §1

[1] = about 10 ppm, beer preservative; cited from earlier work

## C#CCOC(=O)c1ccc(O)cc1O [Propargyl 2,4-Dihydroxybenzoate]
B. cepacia 25416; 0.2% preservative in emulsion
  number of colonies per milliliter, 48 hr: < 10 cfu/ml
  number of colonies per milliliter, 7 days: < 10 cfu/ml
  number of colonies per milliliter, 14 days: < 10 cfu/ml
  number of colonies per milliliter, 21 days: < 10 cfu/ml
  number of colonies per milliliter, 28 days: < 10 cfu/ml
C. albicans 10231; 0.2% preservative in emulsion
  number of colonies per milliliter, 48 hr: 540 cfu/ml
  number of colonies per milliliter, 7 days: < 10 cfu/ml
  number of colonies per milliliter, 14 days: < 10 cfu/ml
  number of colonies per milliliter, 21 days: < 10 cfu/ml
  number of colonies per milliliter, 28 days: < 10 cfu/ml
A. niger 16404; 0.2% preservative in emulsion
  number of colonies per milliliter, 48 hr: 3500 cfu/ml
  number of colonies per milliliter, 7 days: < 10 cfu/ml
  number of colonies per milliliter, 14 days: < 10 cfu/ml
  number of colonies per milliliter, 21 days: < 10 cfu/ml
  number of colonies per milliliter, 28 days: < 10 cfu/ml
P. aeruginosa 9027; 0.2% preservative in emulsion
  number of colonies per milliliter, 48 hr: < 10 cfu/ml
  number of colonies per milliliter, 7 days: < 10 cfu/ml
  number of colonies per milliliter, 14 days: < 10 cfu/ml
  number of colonies per milliliter, 21 days: < 10 cfu/ml
  number of colonies per milliliter, 28 days: < 10 cfu/ml
S. aureus 6538; 0.2% preservative in emulsion
  number of colonies per milliliter, 48 hr: < 10 cfu/ml
  number of colonies per milliliter, 7 days: < 10 cfu/ml
  number of colonies per milliliter, 14 days: < 10 cfu/ml
  number of colonies per milliliter, 21 days: < 10 cfu/ml
  number of colonies per milliliter, 28 days: < 10 cfu/ml
E. coli 8739; 0.2% preservative in emulsion
  number of colonies per milliliter, 48 hr: < 10 cfu/ml
  number of colonies per milliliter, 7 days: < 10 cfu/ml
  number of colonies per milliliter, 14 days: < 10 cfu/ml
  number of colonies per milliliter, 21 days: < 10 cfu/ml
  number of colonies per milliliter, 28 days: < 10 cfu/ml

## C#CCOC(=O)c1ccc(O)c(O)c1 [Propargyl 3,4-Dihydroxybenzoate]
B. cepacia 25416; 0.5% preservative in emulsion
  number of colonies per milliliter, 48 hr: < 10 cfu/ml
  number of colonies per milliliter, 7 days: < 10 cfu/ml
  number of colonies per milliliter, 14 days: < 10 cfu/ml
  number of colonies per milliliter, 21 days: < 10 cfu/ml
  number of colonies per milliliter, 28 days: < 10 cfu/ml
C. albicans 10231; 0.5% preservative in emulsion
  number of colonies per milliliter, 48 hr: < 10 cfu/ml
  number of colonies per milliliter, 7 days: < 10 cfu/ml
  number of colonies per milliliter, 14 days: < 10 cfu/ml
  number of colonies per milliliter, 21 days: < 10 cfu/ml
  number of colonies per milliliter, 28 days: < 10 cfu/ml
A. niger 16404; 0.5% preservative in emulsion
  number of colonies per milliliter, 48 hr: < 10 cfu/ml
  number of colonies per milliliter, 7 days: < 10 cfu/ml
  number of colonies per milliliter, 14 days: < 10 cfu/ml
  number of colonies per milliliter, 21 days: < 10 cfu/ml
  number of colonies per milliliter, 28 days: < 10 cfu/ml
P. aeruginosa 9027; 0.5% preservative in emulsion
  number of colonies per milliliter, 48 hr: < 10 cfu/ml
  number of colonies per milliliter, 7 days: < 10 cfu/ml
  number of colonies per milliliter, 14 days: < 10 cfu/ml
  number of colonies per milliliter, 21 days: < 10 cfu/ml
  number of colonies per milliliter, 28 days: < 10 cfu/ml
S. aureus 6538; 0.5% preservative in emulsion
  number of colonies per milliliter, 48 hr: < 10 cfu/ml
  number of colonies per milliliter, 7 days: < 10 cfu/ml
  number of colonies per milliliter, 14 days: < 10 cfu/ml
  number of colonies per milliliter, 21 days: < 10 cfu/ml
  number of colonies per milliliter, 28 days: < 10 cfu/ml
E. coli 8739; 0.5% preservative in emulsion
  number of colonies per milliliter, 48 hr: < 10 cfu/ml
  number of colonies per milliliter, 7 days: < 10 cfu/ml
  number of colonies per milliliter, 14 days: < 10 cfu/ml
  number of colonies per milliliter, 21 days: < 10 cfu/ml
  number of colonies per milliliter, 28 days: < 10 cfu/ml

## C#CCOC(=O)c1ccc(O)c(Cl)c1 [Propargyl 3-Chloro-4-Hydroxybenzoate]
B. cepacia 25416; 0.5% preservative in emulsion
  number of colonies per milliliter, 48 hr: > 10^6 cfu/ml
  number of colonies per milliliter, 7 days: < 10^6 cfu/ml
  number of colonies per milliliter, 14 days: < 10^6 cfu/ml
  number of colonies per milliliter, 21 days: < 10^6 cfu/ml
  number of colonies per milliliter, 28 days: < 10^6 cfu/ml
C. albicans 10231; 0.5% preservative in emulsion
  number of colonies per milliliter, 48 hr: 280000 cfu/ml
  number of colonies per milliliter, 7 days: 370 cfu/ml
  number of colonies per milliliter, 14 days: < 10 cfu/ml
  number of colonies per milliliter, 21 days: < 10 cfu/ml
  number of colonies per milliliter, 28 days: < 10 cfu/ml
A. niger 16404; 0.5% preservative in emulsion
  number of colonies per milliliter, 48 hr: 10000 cfu/ml
  number of colonies per milliliter, 7 days: < 10 cfu/ml
  number of colonies per milliliter, 14 days: < 10 cfu/ml
  number of colonies per milliliter, 21 days: < 10 cfu/ml
  number of colonies per milliliter, 28 days: < 10 cfu/ml
P. aeruginosa 9027; 0.5% preservative in emulsion
  number of colonies per milliliter, 48 hr: < 10 cfu/ml
  number of colonies per milliliter, 7 days: < 10 cfu/ml
  number of colonies per milliliter, 14 days: 80 cfu/ml
  number of colonies per milliliter, 21 days: < 10 cfu/ml
  number of colonies per milliliter, 28 days: < 10 cfu/ml
S. aureus 6538; 0.5% preservative in emulsion
  number of colonies per milliliter, 48 hr: 9600 cfu/ml
  number of colonies per milliliter, 7 days: < 10 cfu/ml
  number of colonies per milliliter, 14 days: < 10 cfu/ml
  number of colonies per milliliter, 21 days: < 10 cfu/ml
  number of colonies per milliliter, 28 days: < 10 cfu/ml
E. coli 8739; 0.5% preservative in emulsion
  number of colonies per milliliter, 48 hr: 30 cfu/ml
  number of colonies per milliliter, 7 days: < 10 cfu/ml
  number of colonies per milliliter, 14 days: < 10 cfu/ml
  number of colonies per milliliter, 21 days: < 10 cfu/ml
  number of colonies per milliliter, 28 days: < 10 cfu/ml

## CCCCCCCOC(=O)c1ccc(O)cc1 [heptyl p-hydroxybenzoate]
[1]
  solubility in beer: limited solubility in beer so that the beer becomes turbid at about 0 °C
